Reference: article PMC4888613, “Antifilarial activity of diterpenoids from Taxodium distichum” (Parasites & Vectors, 2016)
Several values for one entry are separate records, joined by “and”; a condition that tells them apart may be missing. Equal entries are not always repeated. Entries after “also recorded” stand apart in the source; their conditions may differ. Where two headings read alike, the source gives them in different places.

What was measured:
[1] = CC50 cytotoxicity assay; type: cell-based, African green monkey; conditions: African green monkey
Description: (§1) The assay was run in replicates in each of the two independent experiments.
(§2) Data were transferred to a graphic program (MS Excel) and IC50 and CC50 were calculated by linear interpolation between the two concentrations above and below 50 % inhibition.

[2] = tested on: Brugia malayi microfilariae (Mf); assay: In vitro motility assay on microfilariae; type: cell-based; conditions: for IC50: read-out: IC50 for Mf in MA
Description: (§3) Microfilariae and adult worms were harvested from p.c. of the M. unguiculatus harbouring approximately 5–6 month-old B. malayi infection. The parasites were washed thoroughly with HBSS (pH 7.2) containing antibiotics (penicillin: 100 U/ml; streptomycin: 100 μg/ml) and used for the present study.
(§4) Motility and 3-(4,5-dimethylthiazol-2-yl)-2,5 diphenyltetrazolium bromide (MTT; Sigma-Aldrich, USA) reduction assays that indicate viability of the parasites were used. Test samples and ivermectin (purity 95 %; Sigma-Aldrich, USA) were dissolved in dimethyl sulfoxide (DMSO; Sigma-Aldrich, USA); the final concentration of DMSO in the incubation medium Hanks Balanced Salt Solution (HBSS; Sigma-Aldrich, USA) containing 100 U/ml penicillin and 100 μg/ml streptomycin (Sigma-Aldrich, USA), was kept ≤ 0.1 %. Diethylcarbamazine-citrate (DEC-C; purity 100 %; Sigma-Aldrich, USA) solution was prepared in sterile distilled water. HBSS containing DMSO (≤ 0.1 %) alone was used as negative control.
(§5) In vitro efficacy of the test agents and reference drugs was assessed on mf (40–50 mf/100 μl/well) in a 96-well cell culture plate (Nunc, Denmark) and on adult female worms (1 worm/ml/well) in a 48-well plate (Nunc, Denmark). The assays were run in triplicates.
(§6) Motility assay using mf and adult worms was carried out as described elsewhere. Changes in parasite motility was assessed under a microscope and scored as: 0 = dead (100 %); 1-4 = loss of motility (1 = 75 %; 2 = 50 %; 3 = 25 %; and 4 = no loss of motility). The experiment was repeated twice.
(§7) IC50 and CC50 of the test agents were determined using the method described elsewhere. […] The experiments were repeated twice.
as §2

[3] = tested on: Brugia malayi adult worms (AW); assay: MTT reduction assay on adult female worms; type: cell-based; conditions: for inhibition at 125 µg/mL: Brugia malayi, read-out: Mean % inhibition in MTT reduction by AW
Description: as §4, §5
MTT-reduction assay was carried out using adult worms as described elsewhere. The viability of the treated worms was assessed by calculating per cent inhibition in MTT-reduction potential of the treated worms over DMSO treated control parasites. A hundred percent inhibition in motility of female parasites or mf and or ≥ 50 % inhibition in MTT-reduction potential of the treated female parasites were considered to indicate positive antifilarial activity.
as §7

[4] = tested on: Brugia malayi adult worms (AW); assay: In vitro motility assay on adult female worms; type: cell-based; conditions: for IC50: read-out: IC50 for AW in MA
Description: as §3, §4, §5, §6, §7, §2

[5] = tested on: Brugia malayi; assay: B. malayi-M. coucha model (secondary screening, L3 induced infection); type: in vivo, Mastomys coucha; conditions: for Macrofilaricidal activity (reduction in adult worm recovery over untreated control): DEC-C 50 mg/kg s.c. x 5 days, animals killed day 91 p.i.t.; for Sterile female worms: of surviving female parasites, day 91 p.i.t., control about 28 %; for Course of microfilaraemia: up to day 91 p.i.t.; for Regression line of microfilarial counts against days: trend of post-treatment microfilaraemia in Fig. 5a
Excerpt: (§8) Meriones unguiculatus bearing intraperitoneally instilled adult worms and M. coucha inoculated with B. malayi L3 and showing microfilaremia in peritoneal cavity on day 3 post adult worm transplantation (p.a.t.) and progressive rise in microfilaraemia in peripheral circulation from day 120–180 post larval inoculation (p.l.i.), were employed as primary and secondary screening models, respectively, for assaying the antifilarial efficacy of the test agents.
(§9) The test agents were pulverised to fine powder and suspended in 1 % gum acacia/0.1 % Tween-80 in sterile distilled water. DEC-C and ivermectin were prepared in distilled water and ≤ 0.1 % Tween-80, respectively. The suspensions/solutions of the agents were prepared daily before administration to the animals.
(§10) Compounds K003 and K004 were given at 100 mg/kg body weight, subcutaneously (s.c.). The reference drugs DEC-C and ivermectin were administered to M. unguiculatus at 25 and 1 mg/kg body weight, respectively, while the M. coucha model received DEC-C at 50 mg/kg, body weight. […] Infected animals treated with vehicle only were used as control.
Mastomys coucha harbouring 5–7 month-old (L3 induced) B. malayi infection and showing progressive rise in microfilaraemia was used as secondary screening model. Mf count was recorded in peripheral blood (10 μl tail blood) just before initiation of the treatment (day 0), on day 7/8 and thereafter at weekly intervals till day 91 p.i.t. The animals were killed on day 91 p.i.t.
(§11) As a standard practice (following an accepted protocol) all the M. unguiculatus and M. coucha treated with test agents and vehicle were observed daily for their general health and behaviour (cage side observations) throughout the course of treatment and thereafter till termination of the experiment.
(§12) Microfilaricidal efficacy of the test agents was evaluated at each time point p.i.t and expressed as percent change in mf count over the pretreatment level.
(§13) Macrofilaricidal/adulticidal efficacy of the agents was assessed by calculating percent reduction in adult worm recovery in treated animals over untreated animals. Embryostatic/embryotoxic effect of agents was assessed by examining the uterine contents of female worms using the method described elsewhere and the percent of sterilised worms was determined from total female worms recovered from the treated and control animals.
Statistical analyses were carried out using GraphPad Prism 3.0 software. Results were expressed as the mean ± standard deviation (S.D.) of data obtained from 4–6 animals in two experiments. The data were analysed by Student’s ‘t’ test and one-way ANOVA followed by Tukey’s multiple comparison test, as appropriate. Differences with P < 0.05 were considered significant. The microfilaricidal efficacy of antifilarials was determined by comparing the slopes of control, K003 and DEC treated groups. The slopes of the regression line were compared by standard procedure.

[6] = tested on: Brugia malayi; assay: B. malayi-M. unguiculatus model (primary screening, intraperitoneal adult worm transplant); type: in vivo, Meriones unguiculatus; conditions: for Effect on mf in peritoneal cavity / Sterilised female worm count / Worms recovered, Total / Sterilised female worms (%) (embryostatic activity) / Total worms, % reduction over untreated (macrofilaricidal activity): doses as in Table 2; for Sterilised female worm count / Worms recovered, Total / Worms recovered, Female / Worms recovered, Male: mean ± SD; for Sterilised female worm count / Worms recovered, Total / Worms recovered, Female / Worms recovered, Male / Sterilised female worms (%) (embryostatic activity) / Total worms, % reduction over untreated (macrofilaricidal activity): day 56 p.i.t.; for Worms recovered, Total: A001: the 5 of 6 animals without worms; for Worms recovered, Female / Worms recovered, Male: x 5 days: A001 500 mg/kg p.o., K003/K004 100, ivermectin 1, DEC-C 25 mg/kg s.c.; for Effect on adult worms: ivermectin 1 mg/kg
Excerpt: as §8, §9, §10
Male M. unguiculatus 8–10 weeks old (40–45 g) transplanted intraperitoneally with freshly isolated adult worms from B. malayi-infected M. unguiculatus were used for primary screening of test agents. On day 3 p.a.t., the peritoneal fluid was aspirated and checked for the presence of mf. The treatment was started on day 7/8 p.a.t. and continued for 5 consecutive days. On day 7/8 post-initiation of treatment (p.i.t) and thereafter at fortnightly intervals, the peritoneal fluid was examined under microscope to assess the condition of mf. All animals were killed on day 56 p.i.t. and parasites were collected from p.c., counted and examined for their viability and motility under microscope.
as §11, §12, §13

[7] = tested on: VERO Cell line C1008; assay: CC50 cytotoxicity assay; type: cell-based, African green monkey; conditions: reference drugs, values in μM
Description: as §1, §2

[8] = VERO C1008 cells (African green monkey kidney cells), concentration at which 50 % of VERO cells are killed, read-out: CC50
[9] = 100 % reduction in motility (death) of microfilariae
[10] = Brugia malayi, 50 % inhibition in motility of microfilariae
[11] = over DMSO control, test conc.: 500 μg/ml extract/fractions, 125 μg/ml compounds, 1000 μM DEC, 10/20 μM ivermectin
[12] = 100 % reduction in motility (death) of adult worms
[13] = Brugia malayi, 50 % inhibition in motility of adult worms
[14] = Brugia malayi, reference drugs, values in μM

Compound | CC50 [1, 8] | LC100 for Mf in MA [2, 9] | IC50 [2, 10] | inhibition at 125 µg/mL [3, 11] | LC100 for AW in MA [4, 12] | IC50 [4, 13] | Macrofilaricidal activity (reduction in adult worm recovery over untreated control) [5] | Sterile female worms [5] | Course of microfilaraemia ([5]; peripheral blood) | Regression line of microfilarial counts against days [5] | Mean % inhibition in MTT reduction by AW [3, 11] | Effect on mf in peritoneal cavity [6] | Sterilised female worm count [6] | Worms recovered, Total [6] | Worms recovered, Female [6] | Worms recovered, Male [6] | LC100 for Mf in MA ([2]; reference drugs, values in μM) | LC100 for AW in MA ([4]; reference drugs, values in μM) | Sterilised female worms (%) (embryostatic activity) [6] | Total worms, % reduction over untreated (macrofilaricidal activity) [6] | further results
C=C1CCC2C(C)(C)C(OC(C)=O)CC[C@@]2(C)C1CC/C(C)=C/C(=O)O (some centres unmarked) [Compound K001, 3-Acetoxylabda-8(20),13-diene-15-oic acid] | 697 µg/mL | 250 µg/mL | 88.4 µg/mL | 76.9% | 62.50 µg/mL | 41.2 µg/mL |  |  |  |  |  |  |  |  |  |  |  |  |  |  | 
CC[C@H](CC[C@@H](C)[C@H]1CC[C@H]2[C@@H]3CC=C4C[C@@H](O)CC[C@]4(C)[C@H]3CC[C@]12C)C(C)C [Compound K002, Beta-sitosterol] |  | > 250 µg/mL |  |  | > 250 µg/mL |  |  |  |  |  |  |  |  |  |  |  |  |  |  |  | IC50 ([2]; Brugia malayi): > 250 µg/mL; inhibition at 125 µg/mL [3]: 38%; IC50 ([4]; Brugia malayi): > 250 µg/mL
C=C1CCC2C(C)(C)CCC[C@@]2(C)C1CC/C(C)=C/C(=O)O (some centres unmarked) [Compound K003, labda-8(20),13-diene-15-oic acid] | 180 µg/mL | 31.25 µg/mL | 18.6 µg/mL | > 80% | 125 µg/mL | 74.3 µg/mL | ~ 54% and 53.94% | > 36% | had more or less no effect on microfilaraemia till day 42 p.i.t., but thereafter microfilaraemia stopped increasing as compared to control; also recorded: stopped any further rise in microfilaraemia after day 42 p.i.t | 183.65 ± 0.82 days | 82.05% | ineffective against mf | 8.00 ± 0.71 | 8.40 ± 1.14 | 8.00 ± 0.71 | 0.40 ± 0.89 |  |  |  |  | Reduction in motility of mf ([2]; in vitro): 100%; Reduction in motility of adult worms ([4]; in vitro): 100%
CCN(CC)C(=O)N1CCN(C)CC1 [DEC-C, Diethylcarbamazine-citrate] |  |  |  |  |  |  | around 26.47% | 20% | gradually increased and relapsed by day 49 p.i.t.; the count further increased rapidly and crossed the pretreatment level by day 56 p.i.t. | -21.04 + 2.95 days |  | did not affect mf count | 0.60 ± 0.89 | 9.20 ± 1.48 | 6.60 ± 1.14 | 2.60 ± 0.55 | 500 µM | 1000 µM | (7.86 ± 11.41) % | (22.03) % | Reduction in microfilarial count on day 7/8 p.i.t. ([5]; DEC-C 50 mg/kg, peripheral blood): > 80%; CC50 [1]: 9000 µM; IC50 [2, 14]: 297 µM; IC50 [4, 14]: 315 µM; Effect on female reproductive potential ([6]; DEC-C 25 mg/kg s.c. x 5 days): did not affect mf count or female reproductive potential; Effect on adult worms ([6]; DEC-C 25 mg/kg s.c. x 5 days): mild macrofilaricidal activity
ivermectin |  |  |  |  |  |  |  |  |  |  | 5.80% | did not affect mf in p.c. | 2.75 ± 0.96 |  | 6.25 ± 1.50 | 2.75 ± 0.96 | 2.5 µM | 5 µM | (44.29 ± 5.15) % | (22.43) % | CC50 [7]: 250 µM; IC50 ([2]; reference drugs, values in μM): 1.57 µM; IC50 ([4]; reference drugs, values in μM): 3.05 µM; Sterilised female worms (%) (embryostatic activity) ([6]; listed as ivermectin): 44%; Effect on adult worms ([6]; DEC-C 25 mg/kg s.c. x 5 days): mild but not statistically significant effect on adult worms
